Experiment: xn = mol fraction of the nth substance listed
Settings: 101 kPa, x1 = 0.8

Structure (SMILES): C1CCC2=NCCCN2CC1 + O=S(=O)([N-]S(=O)(=O)C(F)(F)F)C(F)(F)F.[Li+]
- electrical conductivity (338.15 K): 0.0047 S/m
- viscosity (338.15 K): 977 mPa·s
- electrical conductivity (358.15 K): 0.0256 S/m
- viscosity (358.15 K): 160.9 mPa·s
- electrical conductivity (368.15 K): 0.0438 S/m
- viscosity (368.15 K): 82.4 mPa·s

Structure (SMILES): C1CN=C2CCCN2C1 + O=S(=O)([N-]S(=O)(=O)C(F)(F)F)C(F)(F)F.[Li+]
- electrical conductivity (328.15 K): 0.0252 S/m
- viscosity (328.15 K): 566 mPa·s
- electrical conductivity (348.15 K): 0.0633 S/m
- viscosity (348.15 K): 116.3 mPa·s
- electrical conductivity (358.15 K): 0.0966 S/m
- viscosity (358.15 K): 63.5 mPa·s
